Assays:
[1] = target: T1, Receptor-type tyrosine-protein kinase FLT3 (Homo sapiens, UniProt P36888); assay: Inhibition of FLT3
T1 sequence (P36888 whole entry): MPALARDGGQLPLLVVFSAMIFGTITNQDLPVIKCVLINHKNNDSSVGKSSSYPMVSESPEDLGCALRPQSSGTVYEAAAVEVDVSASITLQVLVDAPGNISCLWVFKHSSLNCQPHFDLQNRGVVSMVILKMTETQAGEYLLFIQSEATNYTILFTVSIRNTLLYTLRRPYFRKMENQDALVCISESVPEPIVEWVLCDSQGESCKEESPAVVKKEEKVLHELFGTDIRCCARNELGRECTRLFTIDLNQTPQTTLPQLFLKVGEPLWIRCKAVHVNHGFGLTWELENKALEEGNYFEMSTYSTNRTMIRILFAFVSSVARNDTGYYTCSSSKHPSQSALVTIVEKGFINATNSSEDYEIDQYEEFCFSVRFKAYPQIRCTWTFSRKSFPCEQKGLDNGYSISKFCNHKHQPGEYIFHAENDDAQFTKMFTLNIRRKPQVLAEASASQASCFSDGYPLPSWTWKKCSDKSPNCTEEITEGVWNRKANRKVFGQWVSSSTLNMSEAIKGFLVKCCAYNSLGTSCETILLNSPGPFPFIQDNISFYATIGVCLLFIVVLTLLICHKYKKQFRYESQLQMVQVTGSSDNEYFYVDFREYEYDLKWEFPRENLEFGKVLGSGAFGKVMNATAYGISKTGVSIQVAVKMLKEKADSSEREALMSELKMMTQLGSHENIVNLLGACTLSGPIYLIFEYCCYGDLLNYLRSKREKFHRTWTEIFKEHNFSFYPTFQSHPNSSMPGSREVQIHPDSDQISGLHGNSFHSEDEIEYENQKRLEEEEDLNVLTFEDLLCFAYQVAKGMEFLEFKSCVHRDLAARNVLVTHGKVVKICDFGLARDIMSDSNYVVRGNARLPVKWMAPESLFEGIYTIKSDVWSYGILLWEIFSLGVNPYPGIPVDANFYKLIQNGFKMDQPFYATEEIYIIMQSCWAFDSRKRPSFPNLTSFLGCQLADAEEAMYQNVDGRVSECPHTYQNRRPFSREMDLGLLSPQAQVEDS

[2] = target: Macrophage colony-stimulating factor 1 receptor (Homo sapiens, UniProt P07333); assay: Inhibition of CSF1R
[3] = target: Fibroblast growth factor receptor 1 (Homo sapiens, UniProt P11362); assay: Inhibition of FGFR1
[4] = target: Vascular endothelial growth factor receptor 2 (Homo sapiens, UniProt P35968); assay: Inhibition of KDR
[5] = target: Mast/stem cell growth factor receptor Kit (Homo sapiens, UniProt P10721); assay: Inhibition of KIT2
[6] = Inhibition of CAMK2
[7] = target: Cyclin-dependent kinase 1 (Homo sapiens, UniProt P06493); assay: Inhibition of CDK1
[8] = target: Cyclin-dependent kinase 2 (Homo sapiens, UniProt P24941); assay: Inhibition of CDK2
[9] = target: T2, Serine/threonine-protein kinase Chk1 (Homo sapiens, UniProt O14757); assay: Inhibition of Chk1
T2 sequence (O14757 whole entry): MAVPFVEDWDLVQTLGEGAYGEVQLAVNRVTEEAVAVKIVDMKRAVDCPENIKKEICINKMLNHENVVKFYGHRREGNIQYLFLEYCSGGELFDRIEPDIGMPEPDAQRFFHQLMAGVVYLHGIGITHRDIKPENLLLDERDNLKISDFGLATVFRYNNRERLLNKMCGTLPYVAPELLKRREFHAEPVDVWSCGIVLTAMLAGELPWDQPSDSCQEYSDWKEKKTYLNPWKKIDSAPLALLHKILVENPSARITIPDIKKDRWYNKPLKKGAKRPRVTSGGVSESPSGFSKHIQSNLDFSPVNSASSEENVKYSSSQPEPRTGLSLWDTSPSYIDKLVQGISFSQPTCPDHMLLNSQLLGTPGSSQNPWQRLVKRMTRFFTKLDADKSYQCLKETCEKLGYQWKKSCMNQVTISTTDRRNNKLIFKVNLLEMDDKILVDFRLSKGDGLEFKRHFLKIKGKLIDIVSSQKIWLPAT

[10] = target: Serine/threonine-protein kinase Chk2 (Homo sapiens, UniProt O96017); assay: Inhibition of Chk2
[11] = Inhibition of CK2
[12] = Inhibition of PKA
[13] = target: Tyrosine-protein kinase Lck (Homo sapiens) (UniProt P06239); assay: Inhibition of LCK

Measured: IC50

Macrophage colony-stimulating factor 1 receptor, sequence (P07333 whole entry): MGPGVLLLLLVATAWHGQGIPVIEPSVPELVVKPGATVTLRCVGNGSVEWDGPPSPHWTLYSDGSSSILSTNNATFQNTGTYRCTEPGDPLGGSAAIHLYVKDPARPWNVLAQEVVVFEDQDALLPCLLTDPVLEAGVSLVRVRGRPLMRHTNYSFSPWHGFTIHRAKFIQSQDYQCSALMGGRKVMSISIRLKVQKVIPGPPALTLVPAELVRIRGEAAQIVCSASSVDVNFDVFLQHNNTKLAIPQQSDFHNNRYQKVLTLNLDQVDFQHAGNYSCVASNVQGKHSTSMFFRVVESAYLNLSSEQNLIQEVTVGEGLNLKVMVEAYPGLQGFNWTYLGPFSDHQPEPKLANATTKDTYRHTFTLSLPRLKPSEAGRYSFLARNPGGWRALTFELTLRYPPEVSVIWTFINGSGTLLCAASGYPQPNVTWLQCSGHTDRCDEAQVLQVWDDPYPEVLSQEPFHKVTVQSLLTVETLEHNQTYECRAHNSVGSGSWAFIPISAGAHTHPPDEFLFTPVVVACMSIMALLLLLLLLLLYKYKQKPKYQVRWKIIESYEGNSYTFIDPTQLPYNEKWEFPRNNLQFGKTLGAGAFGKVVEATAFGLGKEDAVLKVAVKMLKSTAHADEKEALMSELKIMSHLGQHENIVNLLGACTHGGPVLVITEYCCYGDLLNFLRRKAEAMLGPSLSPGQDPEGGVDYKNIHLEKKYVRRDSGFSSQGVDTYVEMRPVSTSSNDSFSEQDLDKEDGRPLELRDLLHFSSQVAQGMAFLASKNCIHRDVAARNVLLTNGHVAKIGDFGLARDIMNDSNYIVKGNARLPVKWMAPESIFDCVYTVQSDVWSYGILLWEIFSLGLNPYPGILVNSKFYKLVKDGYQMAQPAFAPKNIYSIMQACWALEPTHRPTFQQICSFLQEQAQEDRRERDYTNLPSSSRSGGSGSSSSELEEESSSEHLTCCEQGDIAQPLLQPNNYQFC
Vascular endothelial growth factor receptor 2, sequence (P35968 whole entry): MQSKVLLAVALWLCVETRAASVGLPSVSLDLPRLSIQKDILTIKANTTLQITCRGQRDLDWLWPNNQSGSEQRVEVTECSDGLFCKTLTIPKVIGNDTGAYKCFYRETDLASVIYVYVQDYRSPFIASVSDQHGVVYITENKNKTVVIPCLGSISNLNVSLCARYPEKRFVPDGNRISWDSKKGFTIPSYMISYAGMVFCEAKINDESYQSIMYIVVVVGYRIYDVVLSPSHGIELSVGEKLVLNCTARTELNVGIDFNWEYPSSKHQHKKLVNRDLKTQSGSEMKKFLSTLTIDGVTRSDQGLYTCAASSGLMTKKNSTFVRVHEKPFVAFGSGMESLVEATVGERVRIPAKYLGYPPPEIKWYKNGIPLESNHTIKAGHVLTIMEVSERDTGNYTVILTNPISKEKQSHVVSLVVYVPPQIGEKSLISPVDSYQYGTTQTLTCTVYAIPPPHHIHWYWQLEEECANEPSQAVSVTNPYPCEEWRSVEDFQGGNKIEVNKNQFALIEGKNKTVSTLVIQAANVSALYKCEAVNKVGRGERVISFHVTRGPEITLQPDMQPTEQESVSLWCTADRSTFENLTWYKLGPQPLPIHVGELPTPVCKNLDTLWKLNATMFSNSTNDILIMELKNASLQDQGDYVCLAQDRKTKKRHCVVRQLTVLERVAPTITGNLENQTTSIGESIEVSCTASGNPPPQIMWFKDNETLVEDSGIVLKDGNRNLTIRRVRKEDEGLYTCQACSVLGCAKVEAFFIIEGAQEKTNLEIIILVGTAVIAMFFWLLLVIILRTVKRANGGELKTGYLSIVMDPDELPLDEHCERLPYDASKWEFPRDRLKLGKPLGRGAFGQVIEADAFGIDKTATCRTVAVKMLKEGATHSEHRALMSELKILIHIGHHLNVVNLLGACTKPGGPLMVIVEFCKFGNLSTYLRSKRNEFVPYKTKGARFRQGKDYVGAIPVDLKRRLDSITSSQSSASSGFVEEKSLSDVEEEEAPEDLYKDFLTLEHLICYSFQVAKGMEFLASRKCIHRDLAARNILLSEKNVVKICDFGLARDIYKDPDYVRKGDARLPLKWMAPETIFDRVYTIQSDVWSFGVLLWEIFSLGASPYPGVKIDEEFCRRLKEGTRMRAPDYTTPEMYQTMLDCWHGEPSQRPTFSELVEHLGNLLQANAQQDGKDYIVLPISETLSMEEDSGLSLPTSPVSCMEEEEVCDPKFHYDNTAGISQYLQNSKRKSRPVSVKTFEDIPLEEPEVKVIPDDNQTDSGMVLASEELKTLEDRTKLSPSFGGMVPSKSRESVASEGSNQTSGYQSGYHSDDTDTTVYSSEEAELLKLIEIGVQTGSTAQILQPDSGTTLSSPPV
Serine/threonine-protein kinase Chk2, sequence (O96017 whole entry): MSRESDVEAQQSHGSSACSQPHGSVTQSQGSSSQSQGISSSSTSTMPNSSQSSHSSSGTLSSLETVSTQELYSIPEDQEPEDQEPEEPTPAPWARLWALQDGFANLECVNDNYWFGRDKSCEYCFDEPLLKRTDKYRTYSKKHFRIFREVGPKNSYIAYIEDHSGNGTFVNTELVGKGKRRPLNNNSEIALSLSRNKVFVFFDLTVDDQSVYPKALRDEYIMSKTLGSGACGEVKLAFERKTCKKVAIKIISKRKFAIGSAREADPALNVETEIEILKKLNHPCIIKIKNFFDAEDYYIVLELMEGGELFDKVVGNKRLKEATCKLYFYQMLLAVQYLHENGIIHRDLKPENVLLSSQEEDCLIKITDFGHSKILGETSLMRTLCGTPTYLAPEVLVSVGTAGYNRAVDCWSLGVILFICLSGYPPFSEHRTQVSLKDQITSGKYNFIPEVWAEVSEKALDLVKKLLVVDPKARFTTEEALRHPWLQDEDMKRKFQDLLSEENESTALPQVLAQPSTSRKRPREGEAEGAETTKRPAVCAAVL
Tyrosine-protein kinase Lck (Homo sapiens), sequence (P06239 whole entry, looked up): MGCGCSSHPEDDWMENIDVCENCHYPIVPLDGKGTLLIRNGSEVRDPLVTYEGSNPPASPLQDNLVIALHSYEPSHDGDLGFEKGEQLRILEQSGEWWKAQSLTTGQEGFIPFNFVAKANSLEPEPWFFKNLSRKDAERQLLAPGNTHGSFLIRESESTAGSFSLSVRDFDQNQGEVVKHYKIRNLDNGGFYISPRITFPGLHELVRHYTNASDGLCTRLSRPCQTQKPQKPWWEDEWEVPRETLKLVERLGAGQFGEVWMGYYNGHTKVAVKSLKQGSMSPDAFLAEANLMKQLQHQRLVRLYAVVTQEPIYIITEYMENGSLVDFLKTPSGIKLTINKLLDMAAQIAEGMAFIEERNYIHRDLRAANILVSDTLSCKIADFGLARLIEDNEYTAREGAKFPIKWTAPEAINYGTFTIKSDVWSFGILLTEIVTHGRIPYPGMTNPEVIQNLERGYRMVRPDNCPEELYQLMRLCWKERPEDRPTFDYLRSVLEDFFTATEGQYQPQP
Fibroblast growth factor receptor 1, sequence (P11362 whole entry): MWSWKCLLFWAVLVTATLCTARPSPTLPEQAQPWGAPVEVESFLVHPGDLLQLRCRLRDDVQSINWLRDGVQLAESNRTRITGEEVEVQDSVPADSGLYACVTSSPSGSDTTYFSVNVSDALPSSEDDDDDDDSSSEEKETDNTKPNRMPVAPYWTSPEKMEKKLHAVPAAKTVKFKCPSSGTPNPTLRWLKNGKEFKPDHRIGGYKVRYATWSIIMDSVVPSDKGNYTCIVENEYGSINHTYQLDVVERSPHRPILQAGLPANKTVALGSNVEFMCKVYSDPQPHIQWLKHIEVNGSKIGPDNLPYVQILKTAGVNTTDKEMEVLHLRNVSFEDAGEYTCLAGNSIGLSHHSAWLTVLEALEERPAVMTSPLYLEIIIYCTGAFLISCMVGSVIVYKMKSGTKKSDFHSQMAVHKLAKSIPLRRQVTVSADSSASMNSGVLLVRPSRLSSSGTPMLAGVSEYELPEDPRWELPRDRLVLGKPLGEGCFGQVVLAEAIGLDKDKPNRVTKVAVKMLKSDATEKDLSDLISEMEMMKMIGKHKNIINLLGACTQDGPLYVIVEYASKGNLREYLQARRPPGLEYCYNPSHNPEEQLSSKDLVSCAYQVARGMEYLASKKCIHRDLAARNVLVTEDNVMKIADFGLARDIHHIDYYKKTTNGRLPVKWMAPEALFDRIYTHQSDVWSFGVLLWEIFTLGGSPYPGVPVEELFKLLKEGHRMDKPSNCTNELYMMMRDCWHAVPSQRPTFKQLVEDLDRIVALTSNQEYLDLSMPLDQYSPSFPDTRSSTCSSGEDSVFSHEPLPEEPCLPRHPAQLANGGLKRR
Cyclin-dependent kinase 1, sequence (P06493 whole entry): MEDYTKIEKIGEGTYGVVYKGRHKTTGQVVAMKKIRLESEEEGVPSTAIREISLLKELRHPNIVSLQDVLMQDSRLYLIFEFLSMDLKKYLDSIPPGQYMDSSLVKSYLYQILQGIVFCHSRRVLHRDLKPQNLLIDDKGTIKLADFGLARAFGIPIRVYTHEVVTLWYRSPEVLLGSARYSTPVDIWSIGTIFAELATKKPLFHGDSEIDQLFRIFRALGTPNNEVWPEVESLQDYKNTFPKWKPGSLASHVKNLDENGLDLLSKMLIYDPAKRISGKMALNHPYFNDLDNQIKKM

O=C(c1ccco1)N1N=C(c2cccnc2)CC1c1ccccc1O (stereo not drawn)
> 10 µM: all assays above

Reference: ChEMBL document CHEMBL1781905, “Discovery and optimization of N-acyl and N-aroylpyrazolines as B-Raf kinase inhibitors” (Bioorg Med Chem Lett, 2010)
